Entries after “also recorded” stand apart in the source; their conditions may differ.
Assays:
[1] = molecular target: T1, full-length Nurr1 (NBRE response element) (Mus musculus, UniProt Q06219); experiment: Full-length Nurr1 NBRE luciferase reporter assay in MN9D cells; assay type: cell-based; details: 6 h treatment
T1 construct: a cell line derived from dopaminergic neurons which endogenously expresses full length Nurr1 and its target genes; endogenous in cells; host or cells: MN9D TET-ON cells
T1 sequence (Q06219 whole entry): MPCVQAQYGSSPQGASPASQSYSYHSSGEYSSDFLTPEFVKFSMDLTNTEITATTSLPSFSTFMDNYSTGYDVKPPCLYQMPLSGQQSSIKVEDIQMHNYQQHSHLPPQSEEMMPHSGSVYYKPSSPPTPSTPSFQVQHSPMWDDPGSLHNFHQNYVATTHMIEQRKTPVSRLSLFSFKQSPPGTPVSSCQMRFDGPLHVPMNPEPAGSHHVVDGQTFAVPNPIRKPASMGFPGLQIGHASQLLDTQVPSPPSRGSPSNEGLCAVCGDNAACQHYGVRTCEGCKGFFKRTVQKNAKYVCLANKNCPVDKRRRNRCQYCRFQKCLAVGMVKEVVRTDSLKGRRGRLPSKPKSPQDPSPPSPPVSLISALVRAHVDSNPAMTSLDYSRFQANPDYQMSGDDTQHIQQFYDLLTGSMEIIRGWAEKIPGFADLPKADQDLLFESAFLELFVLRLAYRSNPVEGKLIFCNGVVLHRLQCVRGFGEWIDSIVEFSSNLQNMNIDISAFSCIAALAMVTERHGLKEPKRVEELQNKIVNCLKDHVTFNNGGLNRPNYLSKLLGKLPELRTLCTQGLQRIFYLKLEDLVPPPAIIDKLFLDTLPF
Description: Luciferase Reporter Assays. These assays were executed using standard protocols. MN9D TET-ON cells (P5) were grown for 60-72 h (see above) before being seeded at 1-10^5 cell/well in 24-well plate in DMEM/F12+5% TET-ON approved FBS 3 h before transfection. Cells were transfected using Lipofectamine 2000 (Invitrogen) and plasmid DNAs according to manufacturer's instructions. Lipofectamine/DNA complexes were prepared in Opti-Mem medium (Gibco) and incubated with cells overnight. The Nurr1-LBD_Gal4-DBD expressing plasmid was prepared by subcloning the Nurr1 LBD fragment into […] plasmid (Clontech) containing GAL4 DBD. The reporter plasmid pGL4.35 (luc2P/9XGAL4 UAS/Hygro) Vector (Promega) contains nine repeats of GAL4 UAS (Upstream Activator Sequence) and drives transcription of the luciferase reporter gene luc2P in response to binding of Nurr-LBD_Gal4-DBD chimeric protein. The pRL-null (Promega) plasmid expressing renilla luciferase was used as an internal control. […] Alternatively, cells were co-transfected with the reporter plasmid NBREx3-POMC-Luc containing three copies of the NBRE sequence ([NT] ID NO:23)) subcloned into the pXP1-luc plasmid containing the minimal (positions -34 to +63) POMC promoter as described previously^7, and the pRL-null plasmid. […] Transfected cells were treated with increasing concentrations of 5-chloroindole or vehicle only for 6 h, after which time the media was aspirated and luciferase activity was measured. Cells from each well were incubated for 15 min with 220 μL/well of Dual-Glo® Luciferase Reagent (Promega) at room temperature upon rotation on the orbital shaker. […] Resulting solutions were transferred to a white opaque 96-well plate (65 μL/well; 3 wells/sample) and firefly luciferase activity was measured using Veritas Microplate Luminometer (Turner BioSystems, Sunnyvale, Calif.). […] Renilla luciferase activity was measured after 20 min of incubation of the plate inside the luminometer. Experimental values are expressed as the average of firefly/renilla luciferase activity±standard deviation (for three independent biological replicates). […]

[2] = Dynamic light scattering assay of nano-aggregation; assay type: physicochemical; details: MST buffer with Pluronic F127
Description: Measurements were made using a DynaPro MS/X (Wyatt Technology) with a 55 mW laser at 826.6 nm, using a detector angle of 90°. The laser power was 100%, and the acquisition time was 2 s. Histograms represent the average of three independent data sets, each with at least 10 measurements.

[3] = molecular target: T2, Nurr1-LBD_Gal4-DBD chimeric protein (Homo sapiens, UniProt P43354); experiment: Nurr1-LBD_Gal4-DBD luciferase reporter assay in MN9D cells; assay type: cell-based; details: 6 h treatment
T2 construct: prepared by subcloning the Nurr1 LBD fragment into […] plasmid (Clontech) containing GAL4 DBD; expressed in transfected cells; host or cells: MN9D TET-ON cells
T2 sequence (P43354 360-595 limits assumed, change not shown): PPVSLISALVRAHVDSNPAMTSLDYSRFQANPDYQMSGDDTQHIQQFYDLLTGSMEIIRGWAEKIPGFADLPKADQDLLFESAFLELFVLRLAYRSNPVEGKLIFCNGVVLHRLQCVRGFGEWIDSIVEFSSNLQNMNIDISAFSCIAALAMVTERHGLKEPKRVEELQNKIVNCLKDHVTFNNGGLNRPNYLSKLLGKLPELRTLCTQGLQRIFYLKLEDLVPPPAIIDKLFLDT
Description: Luciferase Reporter Assays. These assays were executed using standard protocols. MN9D TET-ON cells (P5) were grown for 60-72 h (see above) before being seeded at 1-10^5 cell/well in 24-well plate in DMEM/F12+5% TET-ON approved FBS 3 h before transfection. Cells were transfected using Lipofectamine 2000 (Invitrogen) and plasmid DNAs according to manufacturer's instructions. Lipofectamine/DNA complexes were prepared in Opti-Mem medium (Gibco) and incubated with cells overnight. The Nurr1-LBD_Gal4-DBD expressing plasmid was prepared by subcloning the Nurr1 LBD fragment into […] plasmid (Clontech) containing GAL4 DBD. […] Transfected cells were treated with increasing concentrations of 5-chloroindole or vehicle only for 6 h, after which time the media was aspirated and luciferase activity was measured. […] Resulting solutions were transferred to a white opaque 96-well plate (65 μL/well; 3 wells/sample) and firefly luciferase activity was measured using Veritas Microplate Luminometer (Turner BioSystems, Sunnyvale, Calif.). […] Renilla luciferase activity was measured after 20 min of incubation of the plate inside the luminometer. Experimental values are expressed as the average of firefly/renilla luciferase activity±standard deviation (for three independent biological replicates). […]

Clc1ccc2[nH]ccc2c1 [5-chloroindole]
Luciferase production, full-length Nurr1 NBRE reporter [1]: stimulates production of luciferase; also recorded: stimulates the activity of Nurr1 | Nano-aggregation properties [2]: minimal | Luciferase production, Nurr1-LBD_Gal4-DBD reporter [3]: stimulates production of luciferase; also recorded: stimulates the activity of Nurr1
